This series can be described thus: Observation of particles under optical microscope (Test Example I-4). The class given is physicochemical. Conditions: magnification of 400 times.

The structures appear in SMILES notation.

On to `COc1c(O)c(C)c(C/C=C(\C)CC/C=C(\C)CC/C=C(\C)CC/C=C(\C)CC/C=C(\C)CC/C=C(\C)CC/C=C(\C)CC/C=C(\C)CC/C=C(\C)CCC=C(C)C)c(O)c1OC` [ubiquinol powder (Kaneka QH), ubiquinol], for which the “crystals observed under optical microscope” value is “irregular crystal structure”.
